Paper PMC6950821, “Bioactivity Evaluation of a Novel Formulated Curcumin” (Nutrients, 2019)
Read-outs that look alike come from different tables or passages of the source. Each block holds one compound with its values, some of them ahead of it.

How the values were obtained:
Aurora-A = assay: Western blot of Aurora-A, Huh7; type: cell-based, human; details: Huh7, 0–60 μM, 48 h
Experimental: (§1) The cells were incubated with various treatment (conventional and formulated curcumin or combination of sorafenib and conventional and formulated curcumin), and then collected for western blot. Aliquots of cell lysates containing 20–50 μg of protein were separated by SDS-polyacrylamide gel electrophoresis (SDS-PAGE), transferred onto a polyvinylidene difluoride (PVDF) membrane and detected using specific primary and secondary antibodies. The protein bands were visualized by an enhanced chemiluminescence (ECL) detection kit (Immobilon^TM western, Millipore). The membranes were reprobed for β-actin as a loading control. All western blots were carried out at least three times for each experiment. The data were normalized to β-actin. The following primary antibodies were used: anti-extracellular regulated protein kinases (ERK), anti-caspase-3, anti-poly (ADP-ribose) polymerase (PARP) (all from Cell Signaling Technology) and anti-aurora kinase A (AURKA) (BD Biosciences). All antibodies were used at a 1:1000 dilution.

ERK = assay: Western blot of ERK phosphorylation, Huh7; type: cell-based, human; details: Huh7, 10–60 μM, 48 h
Experimental: as §1

Hep3B cells [1] = assay: Cell cycle analysis (PI, flow cytometry), sub-G1 population; type: cell-based, human; details: 48 h, 30 μM conventional curcumin, 10 μM sorafenib
Experimental: After treatment, the cells were collected by trypsinization and fixed in precooled 70% ethanol overnight. The cells were then incubated with PI in the presence of RNase A. The DNA content was analyzed by a FACSCalibur, and the data were analyzed by Flowjo software. The percentage of cells in the sub-G1 was used to indicate the apoptosis rate.
(§2) formulated curcumin on HCC cell lines. (A) Huh7 cells were treated with various concentrations of
(§3) Cell viability was determined
(§4) cells were examined by flow cytometry.
(§5) were quantified using WinMDI 2.8 software.
(§6) compared to the control group.
(§7) μM of conventional curcumin for 48 h.
(§8) Quantification of cleavage-caspase-3
are representative of three independent experiments.
tetrazolium bromide; SEM, standard error of the mean.

Huh7 cells [2] = assay: Annexin V and PI double staining by flow cytometry; type: cell-based, human; details: Huh7, 10–60 μM, 24 h, dose-dependent
Experimental: The Huh7 were incubated with various concentrations of conventional and formulated curcumin for 24 h. Annexin V/PI staining was performed to quantify cell apoptosis using an Annexin V-fluorescein isothiocyanate (FITC) Apoptosis Detection Kit (BioVision, Inc., Milpitas, CA, USA) according to the manufacturer’s protocol. Annexin V-FITC was then added followed by incubation for 15 minutes in the dark in a 100 µL cell suspension. PI was then spiked into 400 µL Annexin V binding buffer and added immediately to the cell suspension, and subsequently analyzed on a FACScan flow cytometer (BD Biosciences, USA).

caspase-3 [3] = assay: Western blot of cleaved caspase-3, Huh7; type: cell-based, human; details: dose-dependent
Experimental: as §1

Huh7 cells [4] = assay: JC-1 mitochondrial membrane potential assay; type: cell-based, human; details: Huh7, JC-1, 10, 30, and 60 µM, concentration-dependent
Experimental: We employed 5, 5’, 6, 6’-tetrachloro-l, 1’, 3, 3’-tetraethylbenzimidazolcarbocyanine iodide (JC-1), which was obtained from Cayman Chemical Co., to analyze the mitochondrial membrane potential. The cells were seeded in 96-well black plates at a density of 7000 cells/well and cultured overnight. After treatment, JC-1 staining solution was added to each well and incubated at 37 °C for 15–30 minutes in the dark. The plates were obtained by centrifuged at 400 × g at room temperature for 5 minutes, and the supernatant was discarded. Then, JC-1 assay buffer was added to each well, followed by centrifugation at 400 × g at room temperature for 5 minutes, after which the supernatant was discarded. Finally, JC-1 assay buffer was added again to each well for fluorescent analysis using a fluorescent plate reader.

Hep3B cells [5] = assay: MTT viability assay, Hep3B; type: cell-based, human; details: dose-dependent
Experimental: (§9) After incubation, the media were removed from the wells.
Supplementary Figure 6. Effect of sorafenib with or without curcumin/formulated curcumin on Mahlavu and Hep3B cell viability. (A) Mahlavu and (B) Hep3B cells were treated with […]
(conventional)/formulated curcumin for 48 hours. Percentage of inhibition on Mahlavu and Hep3B cells was measured by MTT assay. Data are presented as means ± SEM. Results are representative of three independent experiments.

Huh7 cells [6] = assay: MTT proliferation and viability assay, Huh7; type: cell-based, human; details: for IC50: Homo sapiens; for cell viability: dose-dependent
Experimental: as §9

LC3-II = assay: Western blot of LC3-II, Hep3B; type: cell-based, human; details: 10 μM sorafenib, 30 μM conventional curcumin, 48 h
Experimental: as §1, §2, §3, §4, §5, §6, §7, §8
(§10) are representative of three independent experiments. […]

Mahlavu cells = assay: MTT viability assay, Mahlavu; type: cell-based; details: 72 h (Figure 6B)
Experimental: (§11) Cells were seeded into a 96-well plate (1500–2000 cells/well) overnight and then treated with curcumin and the formulated curcumin respectively for 0, 24, 48, 72, 96 and 120 h. After treatment, […] 3-(4,5-cimethylthiazol-2-yl)-2,5-diphenyl tetrazolium bromide (MTT) was added to each well and cultured for 2 h at 37 °C. After incubation, the media were removed from the wells. The formazan crystals formed were then solubilized in DMSO at room temperature for 10 minutes, and then the absorbance was measured in a multimode microplate reader at 570 nm.

[7] = Pharmacokinetic study after oral gavage, curcumin in rat plasma by LC/MS/MS; type: in vivo, male Sprague Dawley (SD) rats; details: 500 mg/kg, n = 5
Experimental: All animal treatment procedures followed the Guide for the Care and Use of Laboratory Animals (National Institutes of Health (NIH) publication, 85–23, revised 1996) as well as the Animal research: Reporting in vivo experiments (ARRIVE) guidelines, and were approved by the Animal Research Committee at National Yang-Ming University, Taipei, Taiwan, under Institutional Animal Care and Use Committees (IACUC) approval no: 990103. All surgeries and experimental procedure were carried out under anesthesia with all efforts to minimize animal suffering. Twelve male Sprague Dawley (SD) rats (270 ± 15 g body weight) were obtained from Bio-Lasco, Taipei, Taiwan. Water was provided ad libitum, regardless of administration route. All animals were acclimatized and quarantined in quarantine room of the Rosetta animal facility for about 1 week, and then transferred to feeding room. The humidity and temperature were well controlled as 30%–70% and 19–25 °C. The light and dark cycle was set as 12 h: 12 h. Food and drinking water were allowed ad libitum during housing. Rats were randomly divided into two groups treated with curcumin and formulated curcumin. […] A 300 μL blood sample was collected from the tail vein into a tube rinsed with heparin at 0, 0.25, 0.5, 1, 1.5, 2, 4, 6 h after oral administration. Plasma was obtained by centrifuging the blood sample at 4000 rpm for 10 minutes at 4 °C. The 10 μL plasma was mixed with 50 μL of the internal standard solution containing 0.1 ng/µL of agomelatine. The samples were vortexed and centrifuged at 13,000 rpm for 5 minutes. The 50 µL of supernatant was transferred to the 1.5 mL tube contained 50 µL solution of 25% acetonitrile and 0.1% acetic acid. After that, 50 μL of the solution was injected onto LC-MS system. Curcumin concentrations in the samples were determined by positive ion electrospray tandem mass spectrometry using multiple reaction monitoring (MRM). Separation of curcumin was conducted on a Cosmosil column (5C18-MS-IIPacked column, 120 Å, 5 µm, 4.6 mm I.D. x 150 mm; NACALAI TESQUE, Inc., Japan) with a mobile phase of acetonitrile-water-formic acid. […] Pharmacokinetic analysis was calculated using a non-compartmental model with the Phoenix WinNonlin® (Version 8.0) software. The area under the drug concentration-time curve (AUC) was used to measure the total amount of curcumin reaching the systemic circulation. The relative oral bioavailability (BA) of curcumin was calculated according to the following equation: […] The pharmacokinetic results were represented as the mean ± SD. Statistical analysis was performed by t test (SPSS version 10.0) to compare the differences between groups. The level of significance was set at p < 0.05.

caspase-3 [8] = assay: Western blot of cleaved caspase-3, Hep3B; type: cell-based, human; details: 10 μM sorafenib, 30 μM conventional curcumin, 48 h
Experimental: as §1, §2, §3, §4, §5, §6, §7, §8, §10

PLC5 cells = assay: MTT viability assay, PLC5; type: cell-based; details: 72 h (Figure 6C)
Experimental: as §11

[9] = rat plasma, oral, cited from earlier work
[10] = Dissolution test, USP 41 basket method, 1% SDS medium; type: physicochemical; details: 37 °C
Experimental: A dissolution test was conducted by the US Pharmacopeia 41 basket method (apparatus 1) using a dissolution tester (708-DS Dissolution apparatus, Agilent, USA). The samples of 89 mg conventional curcumin (equivalent to 72 mg curcumin) and 2180 mg formulated curcumin (equivalent to 72 mg curcumin) were placed into 900 mL of dissolution medium containing 1% sodium dodecyl sulfate (SDS) at 37 °C ± 0.5 °C, under a stirring speed of 100 ± 2 rpm. A 5 mL sample was withdrawn at each time interval (5, 10, 15, 20, 30, 45, and 60 minutes) and was mixed and filtered through a 0.45-µm pore membrane. Then, 2 mL of filtrate was diluted with mobile phase so that the total volume became 10 mL and subjected to HPLC analysis (Agilent 1260, USA). The HPLC program consisted of a mobile phase of tetrahydrofuran: 0.1% citric acid solution (4:6). The column used was 4.6 mm × 20 cm with 5-µm packing L1. The flow rate was 1 mL/minute, and the injection volume was 20 µL using a 420 nm wavelength detector. The percentages of curcumin dissolved from the conventional curcumin and pellets (formulated curcumin) into the medium were calculated and compared.

[11] = rats; piperine given concomitantly with curcumin; cited from earlier work
[12] = humans; 20 mg of piperine given concomitantly with 2 g of curcumin; cited from earlier work
[13] = 50 mg/kg, n = 5, ref [6] of supplement
[14] = 340 mg/kg, n = 3, ref [5] of supplement
[15] = 500 mg/kg, n = 6, ref [7] of supplement

IC50 (Huh7 cells [6]; Huh-7, 24 h, 24 h (Supplementary Figure S4)): ~90 µM
IC50 (Huh7 cells [6]; Huh-7, 48 h, 48 h (Supplementary Figure S4)): ~90 µM
IC50 (Huh7 cells [6]; Huh-7, 72 h, 72 h (Figure 6A)): 53.3 µM
IC50 (Huh7 cells [6]; Huh-7, 72 h, 72 h (Supplementary Figure S4)): ~60 µM
IC50 (Huh7 cells [6]; Huh-7, 96 h, 96 h (Supplementary Figure S4)): ~45 µM
IC50 (Huh7 cells [6]; Huh-7, 120 h, 120 h (Supplementary Figure S4)): ~30 µM
AUC0-t/Dose [7]: 0.0022 ± 0.0024
AUC0-t ([7]; male, Sprague Dawley): 1.1 ± 1.2 ng·h/mL
Cmax ([7]; male, Sprague Dawley): 0.704 ± 0.272 ng/mL
Tmax ([7]; male, Sprague Dawley): 75 ± 49.8 min
dissolution rate ([10]; 0 minutes): 0.00%
dissolution rate ([10]; 5 minutes): 9.80%
dissolution rate ([10]; 10 minutes): 13.60%
dissolution rate ([10]; 15 minutes): 14.05%
dissolution rate ([10]; 20 minutes): 17.28%
dissolution rate ([10]; 30 minutes): 19.41%
dissolution rate ([10]; 45 minutes): 24.06%
SMILES: COc1cc(/C=C/C(=O)CC(=O)/C=C/c2ccc(O)c(OC)c2)ccc1O [conventional curcumin, curcumin]
level of Aurora-A (Aurora-A): significant decrease
ERK phosphorylation (ERK): down-regulation
apoptosis rate (sub-G1 population) (Hep3B cells [1]): 13.5%
percentage of cells undergoing early apoptosis (annexin V+/PI–) and late apoptosis (annexin V+/PI+) (Huh7 cells [2]): increased
caspase-3 activity (cleaved form) (caspase-3 [3]): increased
mitochondrial membrane potential (ΔΨm) (Huh7 cells [4]): significantly induced mitochondrial membrane potential breakdown
cell viability (Hep3B cells [5]): inhibited cell viability
cell viability (Huh7 cells [6]): inhibited cell viability
LC3-II (LC3-II): significantly induced accumulation
IC50 (Mahlavu cells): 35.4 µM
levels of cleaved caspase-3 proteins (caspase-3 [8]): increased
IC50 (PLC5 cells): 82.5 µM
AUC0-t [9, 13]: 8.76 ng·h/mL
Cmax [9, 13]: 4.07 ± 0.56 ng/mL
Tmax [9, 13]: 30 min
AUC0-t [9, 14]: 80 ng·h/mL
Cmax [9, 14]: 2.39 ± 1.66 ng/mL
Tmax [9, 14]: 30 min
AUC0-t [9, 15]: 60 ng·h/mL
Cmax [9, 15]: 60 ± 10 ng/mL
Tmax [9, 15]: 42 ± 5.4 min

SMILES: O=C(/C=C/C=C/c1ccc2c(c1)OCO2)N1CCCCC1 [piperine]
increase of serum curcumin [11]: 1.56 times
increase of serum curcumin [12]: 20 times

SMILES: CNC(=O)c1cc(Oc2ccc(NC(=O)Nc3ccc(Cl)c(C(F)(F)F)c3)cc2)ccn1 [sorafenib]
apoptosis rate (sub-G1 population) (Hep3B cells [1]): 10.9%
cell viability (Hep3B cells [5]): inhibited cell viability
cell viability (Huh7 cells [6]): inhibited cell viability
levels of cleaved caspase-3 proteins (caspase-3 [8]): increased
